In brackets after ≈: the same amount, converted by molar mass.

For data set [1], the system named is TAR RNA interaction with tat peptide. Description: disruption of TAR RNA interaction with tat peptide. The class given is binding, HIV-1.
The subject of another data set is luciferase mRNA. Description: wheat germ lysate translation of luciferase mRNA. The class given is biochemical. The following applies: mRNA without TAR structure. The source says: It is believed that stabilization of mRNA structures near the 5′-cap also could be effected by specific “small” molecules, and that such binding would reduce the translational efficiency of the mRNA. To test this hypothesis, a plasmid was constructed containing the luciferase message behind a 5′-UTR containing a 27-mer RNA construct of the HIV TAR stem-loop bulge whose structure had been determined by NMR.

The target of data set [2] is luciferase mRNA containing the TAR RNA structure in the 5′-UTR. As to the kind of experiment: wheat germ lysate translation of luciferase mRNA with TAR in the 5′-UTR. As to conditions: read-out: concentration reducing translation by 50%. The class given is biochemical, HIV. The text has this:
It is believed that stabilization of mRNA structures near the 5′-cap also could be effected by specific “small” molecules, and that such binding would reduce the translational efficiency of the mRNA. To test this hypothesis, a plasmid was constructed containing the luciferase message behind a 5′-UTR containing a 27-mer RNA construct of the HIV TAR stem-loop bulge whose structure had been determined by NMR. The resulting mRNA could be expressed and capped in a wheat germ lysate translation system supplemented with T7 polymerase following addition of m^7G to the lysate. Insertion of a 9-base leader before the TAR structure (HIVluc+9) enhanced the translational efficiency, presumably by allowing the pre-initiation complex to form. The helicase activity associated with the pre-initiation complex can transiently melt out the TAR RNA structure, and the message is translated.

The next data set concerns E. coli. Description: high throughput screening assay for antibacterial activity. The class given is cell-based. The following applies: Escherichia coli; against E. coli; crude compounds, identical activity with analytically pure material; read-out: minimum inhibitory concentrations (MIC's). The source says:
This activity was verified by manual solution synthesis of analytically pure material as described in Example 6 above, which had identical activity.

Data set [3] relates to 27-mer model RNA sequence of the 16S A-site. As to the kind of experiment: MASS mass spectrometry binding assay with 16S A-site 27-mer RNA. As to conditions: for complexes detected with the 16S A site 27mer RNA: ESI-FTICR, mixture of five aminoglycosides, 16S and 18S targets simultaneously. On the set-up: species or system prokaryotic. On the procedure:
The compounds are screened for binding affinity using MASS or conventional high-throughput functional screens. The best scoring compounds from docking a 256-member library against the 16S A-site ribosomal RNA structure are shown in the table 5 below. The MASS assay was performed with the 27-mer model RNA sequence of the 16S A-site whose NMR structure has been determined. The transcription/translation assay was based on expression of a luciferase plasmid.
A preferred first step of MASS screening involves mixing the RNA target (or targets) with a combinatorial library of ligands designed to bind to a specific site on the target molecule(s). Specific noncovalent complexes formed in solution between the target(s) and any library members are transferred into the gas phase and ionized by ESI. As described herein, from the measured mass difference between the complex and the free target, the identity of the binding ligand can be determined. The dissociation constant of the complex can be determined in two ways: if a ligand with a known binding affinity for the target is available, a relative Kd can be measured by using the known ligand as an internal control and measuring the abundance of the unknown complex to the abundance of the control, alternatively, if no internal control is available, Kd's can be determined by making a series of measurements at different ligand concentrations and deriving a Kd value from the “titration” curve.
In a direct determination of solution phase dissociation constants (Kd's) by mass spectrometry, ESI-MS measurements of a solution containing a fixed concentration of RNA at different concentrations of ligand were obtained. By measuring the ratio of bound:unbound RNA at varying ligand concentrations, the Kd was determined by 1/slope of the “titration curve”. The MS derived value of 110 nM is in good agreement with previously reported literature value of 200 nM.
All mass spectrometry experiments were performed using an Apex II 70e electrospray ionization Fourier transform ion cyclotron resonance mass spectrometer (Bruker Daltonics, Billerica) employing an actively shielded 7 tesla superconducting magnet. RNA solutions were prepared in 50 mM NH4OAc (pH 7), mixed 1:1 v:v with isopropanol to aid desolvation, and infused at a rate of […] using a syringe pump. Ions were formed in a modified electrospray source (Analytica, Branford) employing an off axis, grounded electrospray probe positioned ca. 1.5 cm from the metalized terminus of the glass desolvation capillary biased at 5000 V. A counter-current flow of dry […] gas heated to 225C was employed to assist in the desolvation process. Ions were accumulated in an external ion reservoir comprised of an RF-only hexapole, a skimmer cone, and an auxiliary electrode for 1000 ms prior to transfer into the trapped ion cell for mass analysis. Each spectrum was the result of the coaddition of 16 transients comprised of […] acquired over a 90,909 kHz bandwidth resulting in a 700 ms detection interval. All aspects of pulse sequence control, data acquisition, and post acquisition processing were performed using a Bruker Daltonics datastation running XMASS version 4.0 on a Silicon Graphics (San Jose, Calif.) R5000 computer.
Mass spectrometry experiments were performed in order to detect complex formation between a library containing five aminoglycosides (Sisomicin (Sis), Tobramycin (Tob), Bekanomycin (Bek), Paromomycin (PM), and Livodomycin (LV)) and two RNA targets simultaneously. Signals from the (M-5H+)^5− charge states of free 16S and 18S RNAs are detected at m/z 1801.515 and 1868.338, respectively. The mass spectrometric assay reproduces the known solution binding properties of aminoglycosides to the 16S A site model and an 18S A site model with a neutral mass linker. Consistent with the higher binding affinity of theses aminoglycosides for the 16S A-site relative to the 18S A-site, aminoglycoside complexes are observed only with the 16S rRNA target. […]

The next data set has as its system 18S A site model. As to the kind of experiment: ESI-FTICR mass spectrometric complex detection with 18S A-site model RNA. The class given is binding, eukaryotic. As to conditions: mixture of five aminoglycosides, 16S and 18S targets simultaneously. On the procedure: Paromomycin, lividomycin (MW=761.354 Da), sisomicin (MW=447.269 Da), tobramycin (MW=467.2591 Da), and bekanamycin (MW=483.254 Da) were obtained from Sigma (St. Louis, Mo.) and ICN (Costa Mesa, Calif.) and were dissolved to generate 10 mM stock solutions. 2′ methoxy analogs of RNA constructs representing the prokaryotic (16S) rRNA and eukaryotic (18S) rRNA A-site were synthesized in house and precipitated twice from 1 M ammonium acetate following deprotection with ammonia (pH 8.5). The mass-tagged constructs contained an 18-atom mass tag (C12H2509) attached to the 5′-terminus of the RNA oligomer through a phosphodiester linkage.
All mass spectrometry experiments were performed using an Apex II 70e electrospray ionization Fourier transform ion cyclotron resonance mass spectrometer (Bruker Daltonics, Billerica) employing an actively shielded 7 tesla superconducting magnet. […]
Mass spectrometry experiments were performed in order to detect complex formation between a library containing five aminoglycosides (Sisomicin (Sis), Tobramycin (Tob), Bekanomycin (Bek), Paromomycin (PM), and Livodomycin (LV)) and two RNA targets simultaneously. Signals from the (M-5H+)^5− charge states of free 16S and 18S RNAs are detected at m/z 1801.515 and 1868.338, respectively. […]

The conditions of data set [4]: general statement; cited from earlier work.
For data set [5] the following is noted: general statement; cited from earlier work. The source holds these as a separate data set.

As for `CNc1ccc(NCCO)c2c1C(=O)c1ccccc1C2=O` [ACD 00001199], in data set [1], the “concentration at which binding to TAR RNA disrupts the interaction with tat peptide” value stood at 1 µM. In addition, the IC50 values result in data set [1] (in words, assay not stated, TAR ligands) is recorded as “low”. The “inhibition of translation of the luciferase mRNA” value in the data set with luciferase mRNA is recorded as “some inhibition of translation at very high concentrations”. In addition, the IC50 in data set [2] is 50 µM.
Regarding `O=C(NO)[C@@H](Cc1ccc2ccccc2c1)NS(=O)(=O)c1ccc2ccccc2c1` [Compound 5-n-ii, (2R)-3-(2-naphthyl)-2-((2-naphthylsulfonyl)Amino)Propanehydroxamic Acid], the MIC in the data set on E. coli was 0.7 to 1.5 µM (≈ 0.294 to 0.631 µg/mL).
In the case of `O=C(NO)[C@@H](Cc1ccc2ccccc2c1)NS(=O)(=O)c1ccc(Br)cc1` [Compound 5-n-vi, (2R)-2-(((4-bromophenyl)Sulfonyl)Amino)-3-(2-naphthyl)Propanehydroxamic Acid], the MIC in the data set with E. coli was 3 to 6 µM (≈ 1.35 to 2.7 µg/mL).
As for `NC[C@H]1O[C@H](O[C@H]2[C@H](O)[C@@H](O[C@H]3O[C@H](CO)[C@@H](O)[C@H](N)[C@H]3O)[C@H](N)C[C@@H]2N)[C@H](N)[C@@H](O)[C@@H]1O` [bekamycin, bekanamycin], the “complexes detected with the 16S A site 27mer RNA” value (from here on “complexes detected”) in data set [3] is “Weaker complexes”.
What is called Kd is the equilibrium constant for the complex coming apart. Consider `NC[C@@H]1O[C@H](O[C@H]2[C@@H](O)[C@H](O[C@@H]3[C@@H](O)[C@H](N)C[C@H](N)[C@H]3O[C@H]3O[C@H](CO)[C@@H](O)C[C@H]3N)O[C@@H]2CO)[C@H](N)[C@@H](O)[C@@H]1O[C@H]1O[C@H](CO)[C@@H](O)[C@H](O)[C@@H]1O` [lividomycin], for which the Kd in data set [3] (16S A site 27mer, ESI-MS titration, read-out: KD measured by mass spectrometry) amounted to 0.028 µM. The “complexes detected” value in data set [3] was “High affinity complexes”. Further, the “complexes with the 18S A site model” value in the data set on 18S A site model was “absence”.
With `CN[C@@H]1[C@@H](O)[C@@H](O[C@@H]2[C@@H](O)[C@H](O[C@H]3OC(CN)=CC[C@H]3N)[C@@H](N)C[C@H]2N)OC[C@]1(C)O` [sisomycin, sisomicin], in data set [3], the “complexes detected” value is “Weaker complexes”.
For the molecule `C=C(NC(=O)C(=C)NC(=O)c1csc(C2=N[C@@H]3c4csc(n4)[C@H]4NC(=O)c5csc(n5)[C@H]([C@](C)(O)[C@@H](C)O)NC(=O)[C@H]5CSC(=N5)/C(=C/C)NC(=O)[C@H]([C@@H](C)O)NC(=O)c5csc(n5)[C@]3(CC2)NC(=O)[C@H](C)NC(=O)C(=C)NC(=O)[C@H](C)NC(=O)[C@H]([C@@H](C)CC)N[C@@H]2C=Cc3c([C@H](C)O)cc(nc3[C@H]2O)C(=O)O[C@@H]4C)n1)C(N)=O` [thiostrepton], the solubility result in data set [4] is “very poor”. Further, in data set [5], the toxicity entry is “relatively high”.
As for `NC[C@H]1O[C@H](O[C@H]2[C@H](O)[C@@H](O[C@H]3O[C@H](CO)[C@@H](O)[C@H](N)[C@H]3O)[C@H](N)C[C@@H]2N)[C@H](N)C[C@@H]1O` [tobramycin], in data set [3], the “complexes detected” value was “Weaker complexes”.

Source of the values: patent US20030083483A1, “Molecular interaction sites of vimentin RNA and methods of modulating the same” (priority 1999, published 2003).
